Measurements from US6521641B1, “Male anti-fertility agents” (Allergan, Inc., priority 1998, dated 2003).
Read-outs that look alike come from different tables or passages of the source.

What was measured:
Sprague-Dawley rats [1] = tested on: Sprague-Dawley rats
Experimental: (§1) The drug was administered using a graduated syringe and a 20×3 inch animal feeding needle. Drug was given to each animal in a single dose per day.
Animals were weighed on the first day of the study and once per week thereafter, and the body weights recorded. The body weights were used for the dosage calculations. For all the Main Study and Recovery animals, food (Purina Certified Rodent Chow, meal form) was placed into tared glass jars and left in the animal cages. Jars were removed and weighed once weekly. Food was added to the jars when necessary. Food consumption was not recorded for the animals used in the toxicokinetic satellite studies.
(§2) Urine was collected from animals in the Main Study and Recovery groups during week 4 of the treatment period, and from Recovery group animals during week 4 of the recovery period. Urine was analyzed for: blood (hemoglobin and erythrocytes), bilirubin, color, glucose, ketones, leukocytes, microscopic evaluations of any urine sediment, […], pH, protein, specific gravity, transparency, and urobilinogen.
(§3) Animals were euthanized by inhalation of carbon dioxide. A complete necropsy was performed on all Main Study and Recovery group animals that died, or were euthanized due to moribund conditions, or were euthanized on scheduled sacrifice.

male Sprague Dawley rats = experiment: Reversibility of spermatogenic arrest, oral AGN 194310 for 4 weeks and recovery (Example 3); format: in vivo, rat
Experimental: Groups of male Sprague Dawley rats were treated orally for 4 weeks with either 0, 0.075, or 0.150 mg/kg/day of AGN 194310. Three to six animals from each group were sacrificed after 2 weeks of treatment, 6 animals from each group were sacrificed following 4 weeks of treatment and 6 animals from each group were sacrificed after 18-23 weeks of subsequent recovery after cessation of treatment. Histological and pathological examinations were done of the sacrificed animals, as in Example 1. Additionally, the animals in the 23 week recovery group were mated to normal, untreated female Sprague Dawley rats before being sacrificed to assess the reproductive function.

male cynomologus monkeys = experiment: Preliminary test of AGN 194310 in male cynomologus monkeys; format: in vivo, cynomologus monkey; conditions: 5 male cynomologus monkeys, daily dosage of 1.25 mg/kg
Excerpt: Those of skill in the art will also recognize that both rats and monkeys are commonly used and accepted animal models for drug efficacy in humans.

Sprague-Dawley rats [2] = experiment: Topical treatment of Sprague-Dawley rats with AGN 194310 cream for 28 days (Example 2); format: in vivo, rat
Experimental: Twenty-nine male and twenty-nine female Sprague-Dawley rats, approximately 7 weeks old were used for the study. Five rats/sex/group were designated as Main Study animals: (vehicle control, 0.025 mg/kg/day AGN 194310, and 0.25 mg/kg/day AGN 194310), and 7/sex/group designated as toxicokinetic satellite animals (0.025 mg/kg/day AGN 194310 and 0.25 mg/kglday AGN 194310). No “vehicle alone” control group was made for the toxicokinetic satellite animals. In this study there was no Recovery group.
The animals' backs were maintained shaven during the course of the study for application of the topical cream. The animals were treated daily with a topical formulation containing either AGN 194310 vehicle cream alone, 0.01% (w/w) AGN 194310 in the same vehicle cream, or 0.1% (w/w) AGN 194310 in the same vehicle cream. The vehicle cream consisted of a mixture of the following ingredients:
Daily dosages were calculated using the most recently obtained body weight, as shown below. The test or control creams were applied for 28 consecutive days to the shaved back of each animal in an area approximately equal to 35.5 cm^2. Application was made using a repeat pipettor, and the drug gently massaged into the skin. An Elizabethan collar was affixed around each animal's neck for a period of about 6 hours following treatment to prevent removal or systemic ingestion of the drug.
Blood was drawn at day 29 via cardiac puncture, as described in Example 1. The animals were first permitted to fast for approximately 16 hours prior to blood collection. Satellite animals were sacrificed on day 28.

Sprague-Dawley rats [3] = conditions: for epididymis histology: high dose rats
Experimental: Ninety-eight male and ninety-eight female Sprague-Dawley (Crl:CD®(SD) IGS BR) Charles River, Hollister, Calif. 95023) rats, approximately 8 to 10 weeks old, were used for the study. The rats were divided into the following groups: non-treated control, vehicle control, 0.005 mg/kg/day, 0.015 mg/kg/day and 0.15 mg/kg/day AGN 194310. AGN 194310 has the following chemical structure: [drawing 18]
The AGN 194310 compound was provided as follows: the compound was dissolved in capric/caprylic triglyceride (CCT) at a variety of doses, either 0.001% (v/v) AGN 194310, 0.003% (v/v) AGN 194310, or 0.01% (v/v) AGN 194310.
One hundred ninety-six animals were distributed into thirteen groups as follows: Groups 1 through 5 were Main Study groups. Groups 6-9 were used for Toxicokinetic studies. Groups 10-13 were Main Study Recovery groups.
as §1, §2, §3
The following organs were weighed for necroscopized animals: adrenal glands, ovaries, kidneys, pituitary gland, liver, spleen, heart, testes, and brain. In the case of organ pairs, both organs were weighed together.
The following tissues and organs were isolated, trimmed if necessary, and preserved in 10% buffered formalin for histopathological evaluation: adrenal glands, mammary gland (with skin), aorta, ovaries, bone/bone marrow, pancreas, femur, pituitary gland, tibia, prostate gland, knee joint, salivary glands, parotid, brain, sub-maxillary, cervix sciatic nerve, diaphragm, seminal vesicle, epididymides, skeletal muscle (thigh), eyes, spinal chord (thoracic), spleen, esophagus, sternum, stomach, testes, duodenum, thymus, jejunum, thyroid gland with parathyroids, ileum, any tissues with lesion(s), cecum, tongue, colon, trachea, heart, bladder, kidneys, uterus, liver, ureter, lungs, urethra, lymph nodes (vaginal, cervical, mediastinal, mesenteric).
Target tissues and organs from the Vehicle (control) and high-dose groups were imbedded in paraffin, and tissue sections made. The sections were mounted and stained with hematoxylin and eosin using standard histological techniques; such histopathological evaluation was performed using techniques well known in the art.
In the Recovery dosage groups that were so evaluated, the selected tissues were prepared and evaluated as set forth above.

[4] = oral 0.075 mg/kg, after 18 weeks of recovery
[5] = oral 0.075 mg/kg, after 23 weeks of recovery
[6] = male rats of the Recovery group, approximately one month without drug

SMILES: CCc1ccc(C2=CC(C)(C)Sc3ccc(C#Cc4ccc(C(=O)O)cc4)cc32)cc1 [AGN 194310, 4-[[4-(4-ethylphenyl)-2,2-dimethyl-(2H)-thiochromen-6-yl]-ethynyl]-benzoic acid]
- urinalysis parameters (Sprague-Dawley rats [1]; rat, in vivo, po): no apparent treatment-related effects
- treatment-related deaths (Sprague-Dawley rats [1]; rats, oral, 0.005-0.15 mg/kg/day, course of the study): No treatment-related deaths
- postmortem pathological examination (Sprague-Dawley rats [1]; rats, oral, end of the treatment period): no noticeable differences
- seminal vesicles (male Sprague Dawley rats; all the treated animals, oral 0.075 mg/kg): normal
- round spermatids in the epididymal caput and cauda (male Sprague Dawley rats; oral 0.075 mg/kg): No increase
- rats with evidence of spermatogenic arrest (male Sprague Dawley rats; oral 0.075 mg/kg, after 2 and 4 weeks of treatment): All rats
- weight of the testes and epididymides (male Sprague Dawley rats; oral 0.075 mg/kg, after 4 weeks of treatment): significantly reduced
- mature sperm in the epididymides (male Sprague Dawley rats; [4]): no mature sperm were seen
- spermatogenesis (histological analysis) (male Sprague Dawley rats; [4]): active spermatogenesis had resumed
- weight of the testes and epididymides (male Sprague Dawley rats; [4]): this weight decrease persisted to some degree
- fertility (mating to untreated females) (male Sprague Dawley rats; [5]): All tested animals were fertile
- rats completely recovered (normal testes weights, complete spermatogenesis cycle, mature sperm in epididymides) (male Sprague Dawley rats; [5]): 2 of the 3
- rats with spermatogenic arrest (male Sprague Dawley rats; oral 0.150 mg/kg, after 2 and 4 weeks of treatment): all rats
- rats completely recovered (active and complete spermatogenesis, normal testes weight) (male Sprague Dawley rats; oral 0.150 mg/kg, after 23 weeks of recovery): 4 out of 6
- spermatogenesis in the remaining animals (male Sprague Dawley rats; oral 0.150 mg/kg, after 23 weeks of recovery, remaining two animals): incomplete spermatogenesis no mature sperm seen in the epididymides histologically
- reproduction of the recovered rats (male Sprague Dawley rats; oral 0.150 mg/kg, after 23 weeks of recovery, the 4 recovered rats): able to reproduce normally
- reversibility of the effects of the drug (male Sprague Dawley rats; when administration is halted): fully reversible
- inhibition or arrest of spermatogenesis (male cynomologus monkeys): did not result in inhibition or arrest of spermatogenesis
- germ cells in the head of the epididymis (Sprague-Dawley rats [2]; majority of males displaying spermatogenic arrest, topical): notable reduction of germ cells
- hematological differences versus control rats (Sprague-Dawley rats [2]; male rats in all groups, topical): no statistically significant hematological differences
- treatment-related skin irritation (Sprague-Dawley rats [2]; rats, topical skin application, 0.025 and 0.25 mg/kg/day, 28 days): did not result in any evidence of treatment-related skin irritation
- clinical observations, body weight, food consumption, gross pathology (Sprague-Dawley rats [2]; rats, topical, 0.025 and 0.25 mg/kg/day, 28 days): No treatment-related clinical observations, differences in body weight, differences in food consumption, or in gross pathology were observed
- male rats with atrophy of the seminiferous tubules with concomitant spermatogenic arrest (Sprague-Dawley rats [2]; topical 0.025 mg/kg/day, 28 days): 0 out of 5
- male rats with atrophy of the seminiferous tubules with concomitant spermatogenic arrest (Sprague-Dawley rats [2]; topical 0.25 mg/kg/day, 28 days): 5 out of 5
- germinal cell layers lining the seminiferous tubules (Sprague-Dawley rats [3]; high dose males 0.15 mg/kg/day, usual four or more layers in normal tubules): one to two layers of germinal cells
- epididymis histology (Sprague-Dawley rats [3]; end of recovery): absence of stored epididymal sperm
- epididymis histology (Sprague-Dawley rats [3]; end of treatment): increase in exfoliated cells
- reversibility of inhibition (focal increase in germ cell layers in individual tubules) (Sprague-Dawley rats [3]; [6]): reversibility of such inhibition was also evident
- spermatogenesis (morphology) (Sprague-Dawley rats [3]; [6]): continuing cessation of spermatogenesis
- testicular atrophy (Sprague-Dawley rats [3]; [6]): testicular atrophy was evident
- spermatozoa counts in urine (Sprague-Dawley rats [3]; male rats, oral 0.15 mg/kg/day, Recovery group, end of the recovery period): no spermatozoa counts
- testes size at postmortem examination (Sprague-Dawley rats [3]; male rats, oral 0.15 mg/kg/day, end of the recovery period): apparent reduction of testes size in all five male rats
- testes weight (Sprague-Dawley rats [3]; male rats, oral high dose 0.15 mg/kg/day, end of the treatment and recovery periods): reduction in testes weight
- spermatogenic arrest (testes histology) (Sprague-Dawley rats [3]; male rats, oral intermediate dose 0.015 mg/kg/day, end of treatment): No such effect
- spermatogenic arrest (testes histology) (Sprague-Dawley rats [3]; male rats, oral low dose 0.005 mg/kg/day, end of treatment): No such effect
- testes weight (Sprague-Dawley rats [3]; male rats, oral, other dosage groups (0.005 and 0.015 mg/kg/day)): no statistically significant reduction of testes weight
- male rats with spermatogenic arrest (testes histology) (Sprague-Dawley rats [3]; oral high dose 0.15 mg/kg/day, end of treatment): 10/10
- rats with inflammation or damage to stromal or vascular elements of the testis (Sprague-Dawley rats [3]; rat, in vivo): None
